The values below come from patent US12492210B2, “Tricyclic compounds and their use” (HUTCHISON MEDIPHARMA LIMITED, priority 2019, dated 2025).

The subject of assay [1] is p-RSK (Thr359) in colo205 cells. In words: p-RSK (Thr359) Acumen Assay in Colo205. The conditions noted are these: Homo sapiens, COLO 205, 1 hour compound incubation, read-out: Example 19 IC50. The format is cell-based. An outline of the steps: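 Colo205 cells (4000/well, seeded overnight in 10% FBS) were exposed 1 hour at 37° C to compound added from a 3–0.001 μM dilution series in 5% DMSO. Cells were then fixed, permeabilised and immunostained for p-RSK Thr359, with PI counterstain. Acumen cytometry gave the percentage of positive cells, normalised to untreated wells and 3 uM GDC0994 wells, for the IC50 fit.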

In another assay the target is T1, MAPK1(ERK2) enzyme (Homo sapiens, UniProt P28482).
T1 construct: purchased Invitrogen PV3313
In words: Z-Lyte Kinase Assay of ERK2. It counts as biochemical. The note with it: read-out: Example 18 IC50. In short, it runs like this:
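FRET-based Z-LYTE assay using ERK2 kinase with Ser/Thr3 peptide; compound tested at 0.00046–1 μM final in 2% DMSO. Kinase reaction ran 1 h at 25-30° C, followed by 1 h development. The coumarin/fluorescein emission ratio (445/520 nm) gave % phosphorylation, and IC50 was fitted from inhibition relative to uninhibited control.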

Broadly, the pIC50 is the IC50 on a negative log10 scale, so that one unit is a factor of ten.

Each structure is given as a SMILES string. pIC50: −log10 of the molar value.

T1 sequence (P28482 whole entry): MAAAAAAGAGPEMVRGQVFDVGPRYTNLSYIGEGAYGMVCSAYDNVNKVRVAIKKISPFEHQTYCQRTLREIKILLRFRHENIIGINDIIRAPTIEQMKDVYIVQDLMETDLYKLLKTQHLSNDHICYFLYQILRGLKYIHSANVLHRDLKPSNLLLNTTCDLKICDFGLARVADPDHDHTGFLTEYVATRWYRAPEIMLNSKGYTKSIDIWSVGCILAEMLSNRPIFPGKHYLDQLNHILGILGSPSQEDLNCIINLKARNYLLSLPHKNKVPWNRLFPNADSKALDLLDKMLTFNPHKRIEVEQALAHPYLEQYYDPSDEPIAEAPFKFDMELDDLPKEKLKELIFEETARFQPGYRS

Turning to `C[C@H]1Cn2cc(-c3nc(Nc4ccnn4C)ncc3F)cc2-c2nnc(C(F)(F)c3ccccc3F)n21` [Compound 97], the figures for the pIC50 (in assay [1]; at MAPK1(ERK2) enzyme) were at least 7.00 and 8.00 to 8.30, respectively.

Take `Cc1cnc(Nc2ccnn2C)cc1-c1cc2n(c1)C[C@H](CF)n1c-2nnc1C(F)(F)n1ccc(Cl)n1` [Compound 152]: the pIC50 is at least 7.00 in assay [1] and at least 8.30 on MAPK1(ERK2) enzyme.

Consider `Cc1cnc(Nc2ccnn2C)nc1-c1cc2c3nnc(C4(C(F)(F)F)CCC4)n3c(C)cn2c1` [Compound 236], for which the results for the pIC50 (in assay [1]; on MAPK1(ERK2) enzyme) were at least 7.00 and at least 8.30, respectively.

For the molecule `Cn1nccc1Nc1cc(-c2cc3n(c2)C[C@H](CF)n2c-3nnc2C2(C(F)(F)F)CCC2)c(Cl)cn1` [Compound 121], the pIC50 in assay [1] is at least 7.00; on MAPK1(ERK2) enzyme it was at least 8.30.

On to `C[C@H]1Cn2cc(-c3nc(Nc4ccnn4C)ncc3F)cc2-c2nnc(C(F)(F)c3ccccc3Cl)n21` [Compound 143], for which the pIC50 is at least 7.00 in assay [1] and below 8.00 on MAPK1(ERK2) enzyme.

Take `Cn1nccc1Nc1cc(-c2cc3n(c2)C[C@H](CF)n2c-3nnc2C(F)(F)C(F)F)c(F)cn1` [Compound 63]: the results for the pIC50 (in assay [1]; on MAPK1(ERK2) enzyme) were at least 7.00 and at least 8.30, respectively.

Consider `Cn1nccc1Nc1cc(-c2cc3n(c2)CCCn2c-3nnc2C(F)(F)c2ccccc2Cl)c(Cl)cn1` [Compound 35], for which the pIC50 in assay [1] is at least 7.00; at MAPK1(ERK2) enzyme it was below 8.00.

As for `Cc1cnc(Nc2ccnn2C)cc1-c1cc2n(c1)CCCn1c-2nnc1C1(C(F)(F)F)CC1` [Compound 233], the pIC50 in assay [1] was at least 7.00; on MAPK1(ERK2) enzyme it was at least 8.30.

For `Cn1nccc1Nc1nccc(-c2cc3c4nnc(COc5ccccc5F)n4ccn3c2)n1` [Compound 2], the pIC50 in assay [1] was at least 7.00; at MAPK1(ERK2) enzyme, at least 8.30.

Take `Cc1cnc(Nc2ccnn2C)nc1-c1cc2n(c1)CCCn1c(Cc3ccccc3F)nnc1-2` [Compound 6]: the results for the pIC50 (in assay [1]; at MAPK1(ERK2) enzyme) were at least 7.00 and 8.00 to 8.30, respectively.

Consider `Cn1nccc1Nc1nccc(-c2cc3c4nnc(COc5ccccc5Cl)n4ccn3c2)n1` [Compound 40], for which the pIC50 in assay [1] is at least 7.00; at MAPK1(ERK2) enzyme it was at least 8.30.

As to `Cc1cc(C(F)(F)c2nnc3n2[C@@H](CF)Cn2cc(-c4cc(Nc5ccnn5C)ncc4C)cc2-3)on1` [Compound 99], the values for the pIC50 (in assay [1]; on MAPK1(ERK2) enzyme) were below 7.00 and at least 8.30, respectively.

For the molecule `C[C@H]1Cn2cc(-c3cc(Nc4ccnn4C)ncc3Cl)cc2-c2nnc(C(F)(F)n3cc(Cl)cn3)n21` [Compound 157], the pIC50 was at least 7.00 in assay [1] and 8.00 to 8.30 on MAPK1(ERK2) enzyme.

In the case of `Cn1nccc1Nc1nccc(-c2cc3n(c2)CCCn2c(Cc4ccccc4Cl)nnc2-3)n1` [Compound 8], the figures for the negative logarithm of the IC50 (pIC50) (in assay [1]; at MAPK1(ERK2) enzyme) were below 7.00 and at least 8.30, respectively.

Turning to `FC[C@H]1Cn2cc(-c3cc(NN4CCOCC4)ncc3Cl)cc2-c2nnc(C(F)(F)c3ccccc3F)n21` [Compound 274], the pIC50 in assay [1] is at least 7.00; at MAPK1(ERK2) enzyme, below 8.00.

On to `Cn1nccc1Nc1cc(-c2cc3n(c2)C[C@H](CF)n2c-3nnc2C(F)(F)C(F)F)c(Cl)cn1` [Compound 79], for which the values for the negative-log IC50 (pIC50) (in assay [1]; on MAPK1(ERK2) enzyme) were at least 7.00 and at least 8.30, respectively.

Regarding `Cn1nccc1Nc1cc(-c2cc3n(c2)CC2(CC2)Cn2c-3nnc2C2(C(F)F)CCC2)c(Cl)cn1` [Compound 51], the pIC50 in assay [1] is at least 7.00; at MAPK1(ERK2) enzyme, at least 8.30.

For the molecule `Cc1cc(Nc2ncc(C)c(-c3cc4n(c3)CCCn3c-4nnc3C3(C(F)(F)F)CCC3)n2)ccn1` [Compound 281, 5-methyl-N-(2-methylpyridin-4-yl)-4-(3-(1-(trifluoromethyl)cyclobutyl)-6,7-dihydro-5H-pyrrolo[1,2-a][1,2,4]triazolo[3,4-c][1,4]diazepin-10-yl)pyrimidin-2-amine], the pIC50 in assay [1] was at least 7.00; at MAPK1(ERK2) enzyme, at least 8.30.

For `Cn1nccc1Nc1nccc(-c2cc3n(c2)C[C@H](CF)n2c-3nnc2C(F)(F)n2cc(Cl)cn2)n1` [Compound 111], the pIC50 is below 7.00 in assay [1] and at least 8.30 at MAPK1(ERK2) enzyme.

Take `Cn1nccc1Nc1ncc(Cl)c(-c2cc3c4nnc(CC(F)(F)F)n4ccn3c2)n1` [Compound 212]: the values for the pIC50 (in assay [1]; on MAPK1(ERK2) enzyme) were at least 7.00 and at least 8.30, respectively.

Turning to `C[C@H]1Cn2cc(-c3cc(Nc4ccnn4C)ncc3Cl)cc2-c2nnc(C3(C(F)(F)F)CCC3)n21` [Compound 256], the negative-log IC50 (pIC50) in assay [1] was at least 7.00; at MAPK1(ERK2) enzyme it was at least 8.30.

`Cn1nccc1Nc1cc(-c2cc3n(c2)C[C@H](CF)n2c-3nnc2C2(F)CC2)c(Cl)cn1` [Compound 56]: the values for the pIC50 (in assay [1]; on MAPK1(ERK2) enzyme) were at least 7.00 and at least 8.30, respectively.

On to `Cc1cnc(Nc2ccnn2C)cc1-c1cc2n(c1)C[C@H](CF)n1c-2nnc1C(F)(F)c1cc(F)ccc1F` [Compound 183], for which the pIC50 in assay [1] was at least 7.00; on MAPK1(ERK2) enzyme it was at least 8.30.

In the case of `Cn1nccc1Nc1cc(-c2cc3n(c2)C[C@H](CF)n2c-3nnc2C(F)(F)c2ccccc2Cl)ccn1` [Compound 138], the pIC50 in assay [1] was at least 7.00; on MAPK1(ERK2) enzyme, 8.00 to 8.30.

On to `COc1cc(Nc2cc(-c3cc4n(c3)CCCn3c-4nnc3C3(C(F)(F)F)CCC3)c(Cl)cn2)n(C)n1` [Compound 269], for which the pIC50 in assay [1] was below 7.00; on MAPK1(ERK2) enzyme it was 8.00 to 8.30.

Take `Cc1cnc(Nc2ccnn2C)nc1-c1cc2n(c1)CCn1c(COc3ccccc3F)nnc1-2` [Compound 7]: the negative logarithm of the IC50 (pIC50) in assay [1] was at least 7.00; at MAPK1(ERK2) enzyme it was at least 8.30.

For `Cc1cnc(Nc2ccnn2C)cc1-c1cc2n(c1)CC(C)(F)Cn1c-2nnc1C(F)(F)C(F)F` (stereo not shown) [Compound 72], the values for the pIC50 (in assay [1]; at MAPK1(ERK2) enzyme) were at least 7.00 and 8.00 to 8.30, respectively.

Take `COCC1Cn2cc(-c3cc(Nc4ccnn4C)ncc3Cl)cc2-c2nnc(C3(C(F)(F)F)CCC3)n2C1` (stereo not shown) [Compound 300, 5-chloro-4-(6-(methoxymethyl)-3-(1-(trifluoromethyl)cyclobutyl)-6,7-dihydro-5H-pyrrolo[1,2-a][1,2,4]triazolo[3,4-c][1,4]diazepin-10-yl)-N-(1-methyl-1H-pyrazol-5-yl)pyridin-2-amine]: the negative logarithm of the IC50 (pIC50) is at least 7.00 in assay [1] and 8.00 to 8.30 on MAPK1(ERK2) enzyme.

On to `C[C@H]1CCn2cc(-c3cc(Nc4ccnn4C)ncc3Cl)cc2-c2nnc(C3(C(F)(F)F)CCC3)n21` [Compound 262], for which the results for the pIC50 (in assay [1]; on MAPK1(ERK2) enzyme) were at least 7.00 and 8.00 to 8.30, respectively.

Regarding `Cn1nccc1Nc1cc(-c2cc3n(c2)CC(F)(F)Cn2c-3nnc2C(F)(F)C(F)F)c(Cl)cn1` [Compound 113], the pIC50 was below 7.00 in assay [1] and 8.00 to 8.30 at MAPK1(ERK2) enzyme.

For `Cc1cnc(Nc2ccnn2C(F)F)nc1-c1cn2c(n1)-c1nnc(C(F)(F)c3ccccc3F)n1[C@@H](C)C2` [Compound 226], the values for the pIC50 (in assay [1]; at MAPK1(ERK2) enzyme) were at least 7.00 and at least 8.30, respectively.

For the molecule `C[C@H]1CCn2cc(-c3cc(Nc4ccnn4C)ncc3Cl)cc2-c2nnc(C3(C(C)(F)F)CCC3)n21` [Compound 105], the pIC50 is at least 7.00 in assay [1] and 8.00 to 8.30 on MAPK1(ERK2) enzyme.

For `Cc1cnc(Nc2ccnn2C2COC2)nc1-c1cc2n(c1)C[C@H](C)n1c-2nnc1C(F)(F)c1ccccc1F` [Compound 295], the pIC50 is at least 7.00 in assay [1] and 8.00 to 8.30 at MAPK1(ERK2) enzyme.

As to `Cc1cccnc1C(F)(F)c1nnc2n1[C@@H](CF)Cn1cc(-c3cc(Nc4ccnn4C)ncc3Cl)cc1-2` [Compound 175], the pIC50 in assay [1] was below 7.00; at MAPK1(ERK2) enzyme it was at least 8.30.

On to `Cc1cnc(Nc2ccnn2C)cc1-c1cc2n(c1)C[C@H](CF)n1c-2nnc1C(F)(F)c1ccccc1F` [Compound 126], for which the pIC50 is at least 7.00 in assay [1] and 8.00 to 8.30 on MAPK1(ERK2) enzyme.
